Consider seven compounds from ChEMBL document CHEMBL1201862, “PubChem BioAssay data set” (2004).

Test systems include NCI-H522; SNB-75; SF-539; HL-60; K562; NCI-H460; MDA-MB-435; SF-268; SN12C; UACC-257; SR; Hs-578T; U-251; SK-OV-3; NCI-H23; UACC-62; NCI/ADR-RES; MCF7; UO-31; EKVX.
Test in all cases: DTP human tumour cell line panel, 48 h

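Each compound was tested at five concentrations against cells in 96-well plates for 48 hours. GI50 = concentration required for 50% inhibition of growth.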 Activity calls are given as the source filed them. Rule as the data show it: active = GI50 up to about 1.1 µM and inactive = higher.

In general, GI50 refers to the concentration giving 50% growth inhibition. On to `COc1ccccc1NS(=O)(=O)c1ccc2ncn(NS(=O)(=O)c3ccc(Cl)cc3)c(=O)c2c1`, for which the GI50 with NCI-H522 was > 100 µM (inactive); in the assay on SNB-75, > 100 µM (inactive); in the assay on SF-539, > 100 µM (inactive); in the assay with HL-60, 85.7 µM (inactive); in the assay with K562, 3.36 µM (inactive); in the assay on NCI-H460 it was > 100 µM (inactive). Besides, the GI50 in the assay with MDA-MB-435 is > 100 µM (inactive); in the assay with SF-268 it was > 100 µM (inactive); with SN12C, > 100 µM (inactive); in the assay on UACC-257, > 100 µM (inactive); in the assay with SR, 63.8 µM (inactive); in the assay on Hs-578T, 77.3 µM (inactive). The GI50 with U-251 is > 100 µM (inactive); in the assay with SK-OV-3 it was > 100 µM (inactive); with NCI-H23, > 100 µM (inactive); in the assay on UACC-62, 39.1 µM (inactive); with NCI/ADR-RES it was > 100 µM (inactive); with MCF7, > 100 µM (inactive). The values for the GI50 in the assay with UO-31 and in the assay with EKVX were 35.2 µM (inactive) and > 100 µM (inactive), respectively.
Regarding `CCN(CC)Cc1cc(Nc2c3ccccc3nc3c4ccccc4n(C)c23)cc(CN(CC)CC)c1O`, the GI50 is 1.75 µM (inactive) in the assay with NCI-H522; 12 µM (inactive) in the assay with SNB-75; 3.18 µM (inactive) in the assay on SF-539; 2.31 µM (inactive) in the assay with HL-60; 2.76 µM (inactive) with K562; 3.89 µM (inactive) in the assay on NCI-H460. Moreover, the GI50 in the assay with MDA-MB-435 is 3.01 µM (inactive); in the assay with SF-268, 6.78 µM (inactive); in the assay on SN12C, 6.61 µM (inactive); in the assay with UACC-257, 2.73 µM (inactive); in the assay on SR, 2.82 µM (inactive); in the assay on Hs-578T it was 6.22 µM (inactive). Also, the GI50 was 5.27 µM (inactive) in the assay on U-251; 14.4 µM (inactive) in the assay with SK-OV-3; 9.64 µM (inactive) in the assay on NCI-H23; 2.81 µM (inactive) with UACC-62; 2.91 µM (inactive) with NCI/ADR-RES; 3.61 µM (inactive) in the assay with MCF7. Besides, the GI50 was 2.12 µM (inactive) in the assay with UO-31 and 4.59 µM (inactive) in the assay with EKVX.
`Nc1ncnc2c1ncn2C1OC(CO)C2OC21` (stereo not given): the GI50 in the assay on NCI-H522 is > 100 µM (inactive); with SNB-75, > 100 µM (inactive); in the assay on SF-539, > 100 µM (inactive); in the assay on HL-60, > 100 µM (inactive); in the assay with K562, 72.8 µM (inactive); with NCI-H460, > 10 µM (inactive). Besides, the GI50 in the assay on MDA-MB-435 is > 10 µM (inactive); in the assay with SF-268, > 100 µM (inactive); in the assay on SN12C, > 100 µM (inactive); in the assay with UACC-257, > 100 µM (inactive); in the assay on SR, > 100 µM (inactive); in the assay on Hs-578T, > 100 µM (inactive). Further, the GI50 is > 100 µM (inactive) with U-251; > 100 µM (inactive) with SK-OV-3; > 100 µM (inactive) in the assay with NCI-H23; > 100 µM (inactive) in the assay on UACC-62; > 10 µM (inactive) in the assay on NCI/ADR-RES; > 100 µM (inactive) in the assay on MCF7. Besides, the GI50 in the assay with UO-31 and in the assay with EKVX was > 100 µM (inactive) each time.
On to `O=C(Nc1cccc2nsnc12)c1cc2c(cc1Cl)Sc1nccn1S2(=O)=O`, for which the GI50 in the assay with NCI-H522 was 8.2 µM (inactive); with SNB-75 it was 8.02 µM (inactive); with SF-539, 3.52 µM (inactive); in the assay with HL-60, 1.85 µM (inactive); with K562, 3.98 µM (inactive); in the assay with NCI-H460, 2.4 µM (inactive). Besides, the GI50 was 9.62 µM (inactive) in the assay with MDA-MB-435; 3.62 µM (inactive) in the assay with SF-268; 13.6 µM (inactive) in the assay on SN12C; 1.81 µM (inactive) in the assay on UACC-257; 2.73 µM (inactive) with SR; 4.25 µM (inactive) in the assay with Hs-578T. Also, the GI50 in the assay on U-251 is 5.66 µM (inactive); in the assay on SK-OV-3, 54.5 µM (inactive); with NCI-H23 it was 11.2 µM (inactive); with UACC-62, 5.33 µM (inactive); in the assay on NCI/ADR-RES it was 17.7 µM (inactive); in the assay on MCF7, 1.73 µM (inactive). For the same compound, the GI50 in the assay with UO-31 was 2.07 µM (inactive); with EKVX it was 5.22 µM (inactive).
Consider `c1ccc(/C(=N\Nc2nc3ccccc3s2)c2ccccn2)cc1`, for which the GI50 with NCI-H522 was 2.71 µM (inactive); in the assay on SNB-75, 19.7 µM (inactive); in the assay with SF-539, 7 µM (inactive); in the assay with HL-60, 0.792 µM (active); in the assay with K562, 1.72 µM (inactive); in the assay on NCI-H460, 1.97 µM (inactive). Besides, the GI50 was 5.68 µM (inactive) with MDA-MB-435; 3.13 µM (inactive) in the assay with SF-268; 2.79 µM (inactive) with SN12C; 2.92 µM (inactive) in the assay with UACC-257; 0.891 µM (active) in the assay on SR; 13.2 µM (inactive) in the assay on Hs-578T. The GI50 was 2.84 µM (inactive) in the assay with U-251; 8.28 µM (inactive) in the assay on SK-OV-3; 6.82 µM (inactive) in the assay on NCI-H23; 3.66 µM (inactive) with UACC-62; 2.7 µM (inactive) in the assay with NCI/ADR-RES; 0.317 µM (active) with MCF7. Also, the GI50 with UO-31 is 0.0843 µM (active); in the assay on EKVX it was 0.41 µM (active).
On to `CO[C@@H]1[C@H](OC(=O)NC(=O)CCl)CC[C@]2(CO2)[C@H]1[C@@]1(C)O[C@@H]1CC=C(C)C` [O-CHLOROACETYLCARBAMOYLFUMAGILLOL], for which the GI50 is 5.35 µM (inactive) with NCI-H522; 7.96 µM (inactive) in the assay on SNB-75; 10.6 µM (inactive) with SF-539; 2.54 µM (inactive) with HL-60; 12.2 µM (inactive) in the assay on K562; 2.04 µM (inactive) in the assay with NCI-H460. Further, the GI50 with MDA-MB-435 was 11.7 µM (inactive); in the assay on SF-268 it was 13.6 µM (inactive); with SN12C, 13.7 µM (inactive); with UACC-257, 11 µM (inactive); in the assay with SR, 5.64 µM (inactive); with Hs-578T it was 19.9 µM (inactive). Besides, the GI50 in the assay on U-251 is 3.08 µM (inactive); in the assay on SK-OV-3, 15.3 µM (inactive); in the assay with NCI-H23, 15.8 µM (inactive); with UACC-62 it was 12 µM (inactive); in the assay on NCI/ADR-RES, 16 µM (inactive); in the assay on MCF7, 12.4 µM (inactive). Also, the figures for the GI50 with UO-31 and in the assay with EKVX were 9.89 µM (inactive) and 14.1 µM (inactive), respectively.
Turning to `COCOc1cc(OC)ccc1C=O`, the GI50 with NCI-H522 was 27.6 µM (inactive); in the assay on SNB-75, 27.5 µM (inactive); in the assay with SF-539, 21.5 µM (inactive); in the assay on HL-60, 26.7 µM (inactive); in the assay with K562, 23.9 µM (inactive); in the assay on NCI-H460 it was 38.5 µM (inactive). Also, the GI50 was 8.39 µM (inactive) with MDA-MB-435; 64.9 µM (inactive) in the assay on SF-268; 34.5 µM (inactive) in the assay with SN12C; 28.6 µM (inactive) in the assay with UACC-257; 11.3 µM (inactive) with SR; 14.8 µM (inactive) in the assay with Hs-578T. The GI50 with U-251 was 30 µM (inactive); in the assay on SK-OV-3, 62.4 µM (inactive); in the assay on NCI-H23, 35.6 µM (inactive); with UACC-62, 54.2 µM (inactive); in the assay with NCI/ADR-RES, 17.3 µM (inactive); in the assay with MCF7, 24.5 µM (inactive). Further, the GI50 in the assay with UO-31 was 64 µM (inactive); with EKVX it was 52.1 µM (inactive).
